Results reported in patent publication US5538985A, “Pyrrolidinone derivatives” (Mitsui Toatsu Chemicals, Inc., priority 1994, dated 1996).

Each molecule was assayed on mAMP-induced hyperkinesia (assay: inhibition of methamphetamine (mAMP)-induced hyperkinesia in mice (Pharmacological Test 2)). Settings: Mus musculus, sc, 0.5 h; test drug 10 mg/kg peritoneally; methamphetamine 1.5 mg/kg subcutaneously; motion measured for 30 minutes; read-out: Inhibition rate of mAMP-induced hyperkinesia (%).
Type: in vivo, mice (ddy male)
Protocol: Using mice, antipsychotic activities were investigated in terms of hyperkinesia induced by methamphetamine. For the experiment, ten 5 weeks-old ddy male mice (NIHON S.L.C K.K.) were used per each group. Immediately after each mouse was peritoneally administered at 10 mg/kg with the corresponding test drug, the mouse was placed in a photocell cage for measurement. The amount of motion was measured for 30 minutes (the first measurement: this was recorded as the action of the test drug for the active movement). Thereafter, the mouse was once taken out of the cage and subcutaneously administered at 1.5 mg/kg with methamphetamine. The mouse was then returned to the same cage and the amount of motion was measured for 30 minutes. An average amount of motion of each group was determined based on the amounts of motion after the administration of methamphetamine (mAMP) as obtained by the second measurement, and the inhibition rate (%) of hyperkinesia was calculated in accordance with the following formula: [formula]
The group to which the test drug was administered: the test drug+methamphetamine
Control group: vehicle+methamphetamine
Normal group: vehicle+saline

Row | SMILES | inhibition in vivo at 10 mg/kg
1 | CC(=O)C1CCN(CC2CCN(c3ccc(Cl)cc3)C2=O)CC1 (stereo not shown) [Example 45] | 51%
2 | CC1CCN(CC2CC(=O)N(c3ccc(Cl)cc3)C2)CC1 (stereo not shown) [Example 81] | 53%
3 | O=C1C(CN2CCCCC2)CCN1c1ccc(Cl)cc1 (stereo not shown) [Example 23] | 54%
4 | CC1CCN(CC2CCN(c3ccc(Cl)cc3)C2=O)CC1 (stereo not shown) [Example 26] | 56%
5 | COc1ccc(N2CCC(CN3CCC(C)CC3)C2=O)cc1 (stereo not shown) [Example 41] | 53%
6 | O=C1CC(CN2CCCCC2)CN1c1ccc(F)cc1 (stereo not shown) [Example 37] | 62%
7 | O=C1C(CN2CCCC2)CCN1c1ccc(Cl)cc1 (stereo not shown) [Example 36] | 56%
8 | O=C1C(CN2CCC(O)CC2)CCN1c1ccc(Cl)cc1 (stereo not shown) [Example 40] | 73%
9 | O=C1C(CN2CCCCCC2)CCN1c1ccc(C2CCCCC2)cc1 (stereo not shown) [Example 64] | 57%
10 | O=C1C(CN2CCCCCC2)CCN1c1ccc(F)cc1 (stereo not shown) [Example 53] | 62%
11 | CC1CC(C)CN(CC2CCN(c3ccc(Cl)cc3)C2=O)C1 (stereo not shown) [Example 56] | 76%
12 | O=C1C(CN2CCCCCC2)CCN1c1ccc(-c2ccccc2)cc1 (stereo not shown) [Example 70] | 66%
13 | CCc1ccc(N2CC(CN3CCCCC3)CC2=O)cc1 (stereo not shown) [Example 39] | 54%
14 | COC1CCN(CC2CCN(c3ccc(Cl)cc3)C2=O)CC1 (stereo not shown) [Example 75] | 66%
15 | CC1CCN(CC2CCN(c3ccc(Cl)c(Cl)c3)C2=O)CC1 (stereo not shown) [Example 33] | 53%
16 | O=C1C(CN2CCCCCC2)CCN1c1ccc(Cl)cc1 (stereo not shown) [Example 1] | 55%

What follows are molecules tested against T1, α1 receptor (Rattus norvegicus, UniProt Q9R0C9) (assay: radioreceptor assay (α1 [sic] receptor) with 3H-(+)pentazocine in rat whole brain homogenate (Pharmacological Test 1)). Settings: 3H-(+)pentazocine 5 nM, rat whole brain except cerebellum and medulla, 2 hours.
T1 construct: whole brain of a rat except for the cerebellum and medulla; from tissue; host or cells: rat whole brain except cerebellum and medulla, homogenate
T1 sequence (Q9R0C9 whole entry): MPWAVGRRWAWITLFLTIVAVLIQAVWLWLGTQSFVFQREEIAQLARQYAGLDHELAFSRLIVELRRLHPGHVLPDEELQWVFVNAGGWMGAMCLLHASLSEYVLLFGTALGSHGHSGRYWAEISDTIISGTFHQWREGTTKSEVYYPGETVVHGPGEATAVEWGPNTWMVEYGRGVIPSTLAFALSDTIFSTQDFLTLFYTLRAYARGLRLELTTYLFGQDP
Type: binding
Protocol: By modifying the Vilner et al. method [B. J. Vilner and W. D. Bowen: Mechanisms for Neuromodulation and neuroprotection? in Multiple Sigma and PCP Receptor Ligands, pp341 (1992) NPP Books], a radioreceptor assay was conducted with respect to the α1 receptor. A homogenate (10 mg/ml) of the whole brain of a rat except for the cerebellum and medulla was incubated together with each test drug and ^3 H-ligand [5 nM of ^3 H-(+)pentazocine (NEN)] for 2 hours. Brain tissue was filtered under suction through a glass fiber filter paper ("GF/B", trade name; manufactured by Whatman) using a cell harvester ("LL-12", trade name; manufactured by Brandel) and was washed twice, each with 3 ml of a buffer solution. The glass fiber filter paper was placed in a vial, to which 3.5 ml of a scintillator ("ACSII" trade name; product of Amersham International plc) were added. After being left for 10 hours, the amount of ^3 H-ligand bound to the receptor was measured by a liquid scintillation counter. Incidentally, (+)-pentazocine (10 μM) was used for the measurement of a blank.
Binding rates of ^3 H-ligand to the receptor at individual concentrations of each test drug were plotted to draw a graph by assuming that the binding rate without addition of the test drug was 100% and that when the blank substance was added was 0%. A concentration of the test drug, which would give a binding rate of 50%, was then determined and recorded as an IC50 value. From the IC50 value, the Ki value was determined in accordance with the following formula: [formula] KD represents the dissociation constant between ^3 H-ligand and the receptor, and was obtained by the Scatchard plotting of the bonding to the receptor when the concentration of ^3 H-ligand was varied.

Row | Ki | SMILES
17 | 1.2 nM | O=C1C(CN2CCCCCCC2)CCN1c1ccc(Cl)c(Cl)c1 (stereo not shown) [Example 31]
18 | 1.3 nM | O=C1C(CN2CCCCC2)CCN1c1cccc(Br)c1 (stereo not shown) [Example 13]
19 | 4.7 nM | O=C1C(CN2CCCCC2)CCN1c1cccc(Cl)c1 (stereo not shown) [Example 12]
20 | 2.8 nM | O=C1C(CN2CCCCC2)CCN1c1ccc(Cl)c(Cl)c1 (stereo not shown) [Example 2]
21 | 3 nM | CC1CCN(CC2(C)CCN(c3ccc(Cl)cc3)C2=O)CC1 (stereo not shown) [Example 49]
22 | 3.6 nM | COc1cccc(N2CCC(CN3CCC(C)CC3)C2=O)c1 (stereo not shown) [Example 43]
23 | 1.5 nM | O=C1C(CN2CCCCCC2)CCN1c1ccc(Cl)cc1 (single isomer, unassigned; (-)) [Example 93 (-) form, (-) 1-(4-Chlorophenyl)-3-(hexahydro-1H-azepin-1-ylmethyl)-2-pyrrolidinone]
24 | 2.3 nM | CC1CCN(CC2CCN(c3ccc(C(C)(C)C)cc3)C2=O)CC1 (stereo not shown) [Example 27]
25 | 2.1 nM | CC1CCN(CC2CCN(c3cccc(C(F)(F)F)c3)C2=O)CC1 (stereo not shown) [Example 11]
26 | 2 nM | O=C1C(CN2CCCCCC2)CCN1c1ccc(Cl)cc1 (stereo not shown) [Example 82]
27 | 5.9 nM | COc1cccc(N2CCC(CN3CCCCCC3)C2=O)c1 (stereo not shown) [Example 44]
28 | 3.2 nM | O=C1C(CN2CCCCCC2)CCN1c1cccc(C(F)(F)F)c1 (stereo not shown) [Example 3]
29 | 4.4 nM | O=C1C(CN2CCCCC2)CCN1c1ccc(C(F)(F)F)cc1 (stereo not shown) [Example 74]
30 | 8 nM | COC1CCN(CC2CCN(c3ccc(Cl)cc3)C2=O)CC1 (stereo not shown) [Example 75]
31 | 3.8 nM | CCC1CCN(CC2CCN(c3ccc(Cl)cc3)C2=O)CC1 (stereo not shown) [Example 29]
32 | 7 nM | CC1CCN(CC2CCN(c3ccc(Cl)c(Cl)c3)C2=O)CC1 (stereo not shown) [Example 33]
33 | 3.5 nM | O=C1C(CN2CCCCC2)CCN1c1cccc(C(F)(F)F)c1 (stereo not shown) [Example 20]
34 | 2.7 nM | O=C1C(CN2CCCCCC2)CCN1c1ccc(Cl)cc1 (stereo not shown) [Example 1]
